Laboratory results from PMC3954981 (Bioorganic & medicinal chemistry, 2014).
Where two headings read alike, the source gives them in different places. Each block holds one compound with its values, some of them ahead of it.

Legend:
PAD1 [1] = target: T1, PAD1 (Homo sapiens, UniProt Q9ULC6); assay: Inactivation kinetics; assay type: biochemical; details: read-out: kinact/KI (apparent), PAD1
T1 sequence (Q9ULC6 1-663): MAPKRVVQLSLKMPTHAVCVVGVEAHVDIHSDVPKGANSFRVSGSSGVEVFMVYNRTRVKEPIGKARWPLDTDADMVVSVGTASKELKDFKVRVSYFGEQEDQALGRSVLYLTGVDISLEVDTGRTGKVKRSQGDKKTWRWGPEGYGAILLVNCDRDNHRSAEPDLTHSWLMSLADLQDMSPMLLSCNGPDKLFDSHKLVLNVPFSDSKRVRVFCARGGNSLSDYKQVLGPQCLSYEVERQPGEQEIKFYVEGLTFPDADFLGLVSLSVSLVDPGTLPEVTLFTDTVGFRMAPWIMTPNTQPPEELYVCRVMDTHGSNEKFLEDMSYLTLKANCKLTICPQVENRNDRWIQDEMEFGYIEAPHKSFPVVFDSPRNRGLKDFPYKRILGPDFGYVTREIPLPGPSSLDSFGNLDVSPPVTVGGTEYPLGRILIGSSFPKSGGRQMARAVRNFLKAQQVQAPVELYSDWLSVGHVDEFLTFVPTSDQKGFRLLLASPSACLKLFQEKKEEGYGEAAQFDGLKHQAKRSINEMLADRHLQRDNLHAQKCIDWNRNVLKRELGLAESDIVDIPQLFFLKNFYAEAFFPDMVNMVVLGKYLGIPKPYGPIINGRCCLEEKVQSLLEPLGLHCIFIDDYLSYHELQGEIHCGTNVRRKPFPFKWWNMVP

PAD2 [2] = target: T2, PAD2 (Homo sapiens, UniProt Q9Y2J8); assay: Inactivation kinetics; assay type: biochemical
PAD3 [3] = target: T3, PAD3 (Homo sapiens, UniProt Q9ULW8); assay: Inactivation kinetics; assay type: biochemical; details: read-out: kinact/KI (apparent), PAD3
T3 sequence (Q9ULW8 1-664): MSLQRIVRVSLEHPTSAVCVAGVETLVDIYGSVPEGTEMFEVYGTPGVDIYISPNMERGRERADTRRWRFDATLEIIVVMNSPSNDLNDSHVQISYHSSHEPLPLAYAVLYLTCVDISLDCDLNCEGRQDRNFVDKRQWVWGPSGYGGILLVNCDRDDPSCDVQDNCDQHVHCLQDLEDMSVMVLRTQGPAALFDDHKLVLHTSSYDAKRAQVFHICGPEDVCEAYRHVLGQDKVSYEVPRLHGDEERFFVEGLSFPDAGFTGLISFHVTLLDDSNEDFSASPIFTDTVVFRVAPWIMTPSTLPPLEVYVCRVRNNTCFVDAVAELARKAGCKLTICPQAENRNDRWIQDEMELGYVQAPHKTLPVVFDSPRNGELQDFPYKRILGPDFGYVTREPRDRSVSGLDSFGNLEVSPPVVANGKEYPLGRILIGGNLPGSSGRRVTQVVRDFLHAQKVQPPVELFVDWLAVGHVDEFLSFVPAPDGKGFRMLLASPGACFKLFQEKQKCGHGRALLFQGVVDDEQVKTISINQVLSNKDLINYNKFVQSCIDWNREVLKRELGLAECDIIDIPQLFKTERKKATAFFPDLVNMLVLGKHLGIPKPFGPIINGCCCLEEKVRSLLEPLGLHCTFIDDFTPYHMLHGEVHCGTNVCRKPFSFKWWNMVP

PAD4 [4] = target: T4, PAD4 (Homo sapiens, UniProt Q9UM07); assay: Inactivation kinetics; assay type: biochemical
PADs 1, 2, 3, and 4 = assay: Library screening, inhibition of the PADs described in words; assay type: biochemical, human; details: 10 μM, PADs 1–4
PAD4 [5] = target: T4, PAD4; assay: Irreversibility study; assay type: biochemical; details: for recovery of PAD4 enzymatic activity after dialysis: 100 μM compound, 1 h, dialysis overnight
PAD4 [6] = target: T4, PAD4; assay: Gel-based competitive ABPP with RFA; assay type: binding; details: RFA 10 μM, PAD4 2 μM, inhibitor 0–50 μM
PAD2 [7] = target: T2, PAD2; assay: Gel-based competitive ABPP with RFA; assay type: binding; details: RFA 10 μM, PAD2 2 μM, inhibitor 0–50 μM
PAD4 [8] = target: T4, PAD4; assay: Substrate; assay type: biochemical; details: inactivator 0.5 μM; BAEE 2 mM and 10 mM
WT-PAD4 = WT-PAD4 (Homo sapiens, UniProt Q9UM07); assay: MALDI-MS analysis of inhibitor-treated enzyme; assay type: binding; details: 1:10 enzyme:inhibitor, 1 h, WT-PAD4 3 μM
PAD4 C645A = PAD4 C645A (Homo sapiens, UniProt Q9UM07, C645A); assay: MALDI-MS analysis of inhibitor-treated enzyme; assay type: binding; details: 1:10 enzyme:inhibitor, 1 h, PAD4 C645A 5 μM
PAD2 [9] = target: T2, PAD2; assay: MALDI-MS analysis of inhibitor-treated enzyme; assay type: binding; details: 1:10 enzyme:inhibitor, 1 h, PAD2 3 μM
U2OS cells = assay: XTT cell viability assay; details: 10 μM, 3 days
NIH 3T3 cells = assay: XTT cell viability assay; details: 10 μM, 3 days
PAD1 [10] = target: T1, PAD1; assay: Irreversibility study; assay type: biochemical; details: 170-fold excess of 17, dialyzed 20 h
PAD2 [11] = target: T2, PAD2; assay: Irreversibility study; assay type: biochemical; details: 170-fold excess of 17, dialyzed 20 h
PAD3 [12] = target: T3, PAD3; assay: Irreversibility study; assay type: biochemical; details: 170-fold excess of 17, dialyzed 20 h
PAD4 [13] = target: T4, PAD4; details: cited from earlier work
PADs = details: second generation mechanism-based inactivator; cited from earlier work
[14] = read-out: kinact/KI (apparent), PAD2
[15] = read-out: kinact/KI (apparent), PAD4

T4 sequence (Q9UM07 whole entry): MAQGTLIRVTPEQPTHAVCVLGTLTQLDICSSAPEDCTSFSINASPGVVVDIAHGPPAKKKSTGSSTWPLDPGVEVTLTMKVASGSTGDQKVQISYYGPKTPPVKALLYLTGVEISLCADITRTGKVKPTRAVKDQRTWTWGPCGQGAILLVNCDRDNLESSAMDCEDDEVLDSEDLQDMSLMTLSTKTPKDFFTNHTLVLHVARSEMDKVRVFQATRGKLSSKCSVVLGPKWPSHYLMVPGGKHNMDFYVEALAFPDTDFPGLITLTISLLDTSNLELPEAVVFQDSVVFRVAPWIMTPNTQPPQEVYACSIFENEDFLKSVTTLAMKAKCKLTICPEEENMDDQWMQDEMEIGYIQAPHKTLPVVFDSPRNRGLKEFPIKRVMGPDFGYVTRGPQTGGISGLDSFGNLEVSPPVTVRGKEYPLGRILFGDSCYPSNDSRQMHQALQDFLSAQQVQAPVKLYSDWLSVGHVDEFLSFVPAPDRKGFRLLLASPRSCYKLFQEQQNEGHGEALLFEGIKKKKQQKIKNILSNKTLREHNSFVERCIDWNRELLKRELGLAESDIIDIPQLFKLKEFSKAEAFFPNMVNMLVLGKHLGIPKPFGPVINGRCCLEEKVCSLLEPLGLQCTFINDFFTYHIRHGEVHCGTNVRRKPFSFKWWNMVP
T2 sequence (Q9Y2J8 whole entry): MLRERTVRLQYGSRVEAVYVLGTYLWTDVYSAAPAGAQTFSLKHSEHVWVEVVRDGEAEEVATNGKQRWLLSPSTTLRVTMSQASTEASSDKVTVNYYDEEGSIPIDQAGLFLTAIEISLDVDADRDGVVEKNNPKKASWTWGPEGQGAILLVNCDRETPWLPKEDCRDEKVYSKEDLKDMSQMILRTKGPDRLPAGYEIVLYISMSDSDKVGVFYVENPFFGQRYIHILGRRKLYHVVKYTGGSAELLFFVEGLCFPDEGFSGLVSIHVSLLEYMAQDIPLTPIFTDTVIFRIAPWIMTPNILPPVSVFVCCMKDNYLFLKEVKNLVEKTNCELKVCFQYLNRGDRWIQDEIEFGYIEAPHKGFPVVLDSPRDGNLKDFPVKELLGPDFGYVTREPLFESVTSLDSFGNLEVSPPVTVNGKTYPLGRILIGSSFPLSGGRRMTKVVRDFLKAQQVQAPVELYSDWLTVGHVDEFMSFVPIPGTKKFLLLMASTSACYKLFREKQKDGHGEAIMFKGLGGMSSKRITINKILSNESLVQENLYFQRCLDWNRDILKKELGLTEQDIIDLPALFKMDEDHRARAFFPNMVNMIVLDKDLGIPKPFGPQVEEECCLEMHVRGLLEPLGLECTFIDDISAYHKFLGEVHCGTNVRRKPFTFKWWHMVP
Sequence of WT-PAD4 (Q9UM07 whole entry): as the sequence (Q9UM07 whole entry) above
Sequence of PAD4 C645A (Q9UM07 whole entry C645A): as the sequence (Q9UM07 whole entry) above, with C645A counted along it

kinact/KI (PAD1 [1]): 53.3 M⁻¹ s⁻¹
kinact (PAD2 [2]; read-out: kinact, PAD2): 0.00117 s⁻¹
kinact/KI (PAD2 [2]; read-out: kinact/KI, PAD2): 138 M⁻¹ s⁻¹
kinact/KI (PAD3 [3]): 30 M⁻¹ s⁻¹
kinact/KI (PAD4 [4]; read-out: kinact/KI, PAD4): 95 M⁻¹ s⁻¹
recovery of PAD4 enzymatic activity after dialysis (PAD4 [5]): little to no activity is recovered
labeling of PAD4 by RFA (PAD4 [6]): prevent labeling
labeling of PAD2 by RFA (PAD2 [7]): prevent labeling
substrate protection against inactivation of PAD4 (PAD4 [8]): little substrate protection was observed
mass shift of WT-PAD4 (Δ Da) (WT-PAD4): 692 Da
mass shift of PAD4 C645A (Δ Da) (PAD4 C645A): 737 Da
mass shift of PAD2 (PAD2 [9]): 324 Da
Structure (SMILES): NC1=CC(=O)c2ccc(-c3ccccn3)nc2C1=O [Compound 3]
inhibition of the PADs (in words) (PADs 1, 2, 3, and 4): strong inhibition

Structure (SMILES): COC(=O)c1nc(C(C)=O)c2[nH]c3ccccc3c2c1C [Compound 4]
inhibition of the PADs (in words) (PADs 1, 2, 3, and 4): little to no inhibition

Structure (SMILES): COC(=O)c1cccc(-c2ccc3ccc(Br)c(O)c3n2)n1 [Compound 5]
inhibition of the PADs (in words) (PADs 1, 2, 3, and 4): no inhibition

Structure (SMILES): COC(=O)c1nc(C(=O)OC)c(NC(C)=O)c(-c2ccccc2Br)c1C [Compound 6]
inhibition of the PADs (in words) (PADs 1, 2, 3, and 4): little to no inhibition

Structure (SMILES): CCOC(=O)c1nc(C(=O)OCC)c(C(=O)OCC)c(-c2ccc(OC)c(OC)c2OCc2ccccc2)c1C [Compound 7]
inhibition of the PADs (in words) (PADs 1, 2, 3, and 4): little to no inhibition

Structure (SMILES): COC(=O)c1nc(C(=O)OC)c(N)c(-c2ccccc2Br)c1C [Compound 8]
inhibition of the PADs (in words) (PADs 1, 2, 3, and 4): little to no inhibition

kinact/KI (PAD1 [1]): 60 M⁻¹ s⁻¹
kinact/KI (PAD2 [2]; [14]): 63.3 M⁻¹ s⁻¹
kinact/KI (PAD3 [3]): 25 M⁻¹ s⁻¹
kinact/KI (PAD4 [4]; [15]): 81.7 M⁻¹ s⁻¹
recovery of PAD4 enzymatic activity after dialysis (PAD4 [5]): little to no activity is recovered
Structure (SMILES): COC1=C(Br)C(=O)c2ncccc2C1=O [Compound 10]
inhibition of the PADs (in words) (PADs 1, 2, 3, and 4): strong inhibition
cells remaining viable, U2OS (U2OS cells): retain significant viability
cells remaining viable, NIH 3T3 (NIH 3T3 cells): retain significant viability

kinact/KI (PAD1 [1]): 76.7 M⁻¹ s⁻¹
kinact/KI (PAD2 [2]; [14]): 86.7 M⁻¹ s⁻¹
kinact/KI (PAD3 [3]): 51.7 M⁻¹ s⁻¹
kinact/KI (PAD4 [4]; [15]): 93.3 M⁻¹ s⁻¹
recovery of PAD4 enzymatic activity after dialysis (PAD4 [5]): little to no activity is recovered
Structure (SMILES): NC1=CC(=O)c2cccnc2C1=O [Compound 14]
inhibition of the PADs (in words) (PADs 1, 2, 3, and 4): strong inhibition

PAD1 activity regained after dialysis (PAD1 [10]): Little to no activity was regained
PAD2 activity regained after dialysis (PAD2 [11]): Little to no activity was regained
PAD3 activity regained after dialysis (PAD3 [12]): Little to no activity was regained
recovery of PAD4 enzymatic activity after dialysis (PAD4 [5]): little to no activity is recovered
PAD4 activity regained after dialysis (PAD4 [5]; 170-fold excess of 17, dialyzed 20 h): Little to no activity was regained
labeling of PAD4 by RFA (PAD4 [6]): prevent labeling
labeling of PAD2 by RFA (PAD2 [7]): prevent labeling
Structure (SMILES): NC1=CC(=O)c2ccc(-c3cccc(C(=O)O)n3)nc2C1=O [Compound 17]
inhibition of the PADs (in words) (PADs 1, 2, 3, and 4): strong inhibition
cells remaining viable, U2OS (U2OS cells): retain significant viability
cells remaining viable, NIH 3T3 (NIH 3T3 cells): retain significant viability

Structure (SMILES): NC1=C(N)C(=O)c2ccccc2C1=O [Compound 19]
inhibition of the PADs (PADs 1, 2, 3, and 4): ~ 50%

Structure (SMILES): NC1=CC(=O)c2ccc(-c3cc(C(=O)O)ccc3N)nc2C1=O [Compound 22]
inhibition of the PADs (in words) (PADs 1, 2, 3, and 4): loss in potency

Structure (SMILES): O=C(O)c1cccc(-c2ccc3ccc(Br)c(OCc4ccccc4)c3n2)n1 [Compound 23]
inhibition of the PADs (in words) (PADs 1, 2, 3, and 4): no inhibition

Structure (SMILES): COC(=O)c1cc(-c2ccccc2)c(C(=O)OC)c(-c2ccc3ccccc3n2)n1 [Compound 24]
inhibition of the PADs (in words) (PADs 1, 2, 3, and 4): no inhibition

Structure (SMILES): COC(=O)c1nnc(C(=O)OC)c(-c2ccc3c([N+](=O)[O-])c(OC)ccc3n2)n1 [Compound 25]
inhibition of the PADs (in words) (PADs 1, 2, 3, and 4): no inhibition

Structure (SMILES): COC(=O)c1nnc(C(=O)OC)c(-c2ccc3cc(OC)ccc3n2)n1 [Compound 26]
inhibition of the PADs (in words) (PADs 1, 2, 3, and 4): no inhibition

Structure (SMILES): COc1ccc2ncccc2c1[N+](=O)[O-] [Compound 29]
inhibition of the PADs (in words) (PADs 1, 2, 3, and 4): no inhibition

Structure (SMILES): COc1ccc2nc(C#N)ccc2c1 [Compound 30]
inhibition of the PADs (in words) (PADs 1, 2, 3, and 4): no inhibition

Structure (SMILES): COC1=C(N)C(=O)c2nc(-c3nc(C(=O)O)c(C)c(-c4ccc(OC)c(OC)c4O)c3N)ccc2C1=O [Streptonigrin, reference compound]
labeling of PAD4 by RFA (PAD4 [6]): decreased the labeling
labeling of PAD2 by RFA (PAD2 [7]): decreased the labeling
mass shift of WT-PAD4 (Δ Da) (WT-PAD4): 710 Da
mass shift of PAD4 C645A (Δ Da) (PAD4 C645A): 924 Da
mass shift of PAD2 (PAD2 [9]): 469 Da
preferential inhibition of PAD4 versus PAD1 (PAD4 [13]): 119 fold
preferential inhibition of PAD4 versus PAD2 (PAD4 [13]): 37 fold
preferential inhibition of PAD4 versus PAD3 (PAD4 [13]): 126 fold

Structure (SMILES): CC(=O)N[C@H](C(=O)N[C@@H](CC(=O)O)C(=O)N[C@@H](CCCN=C(N)CF)C(N)=O)[C@@H](C)O [Thr-Asp-F-amidine (TDFA), Thr-Asp-F-amidine]
kinact/KI (PADs): 26,000 M^−1min^−1
